# Source: ChEMBL document CHEMBL1681651, “A broad spectrum anticancer nucleoside with selective toxicity against human colon cells in vitro” (2011)
# Tests used:
# Assay type in all cases: functional
# SK-OV-3 = assay: Growth inhibition of human SKOV3 cells assessed as cell growth at 1 uM after 48 hrs by SRB assay; conditions: SK-OV-3, 48 h, read-out: Activity
# RXF 393 = assay: Growth inhibition of human RXF393 cells assessed as cell growth at 1 uM after 48 hrs by SRB assay; conditions: RXF 393, 48 h, read-out: Activity
# TK-10 = assay: Growth inhibition of human TK10 cells assessed as cell growth at 1 uM after 48 hrs by SRB assay; conditions: TK-10, 48 h, read-out: Activity
# MDA-MB-231 = assay: Growth inhibition of human MDA-MB-231 cells assessed as cell growth at 1 uM after 48 hrs by SRB assay; conditions: MDA-MB-231, 48 h, read-out: Activity
# K562 = assay: Growth inhibition of human K562 cells assessed as cell growth at 10 uM after 48 hrs by SRB assay; conditions: K562, 48 h, read-out: Activity
# MOLT-4 = assay: Growth inhibition of human MOLT4 cells assessed as cell growth at 10 uM after 48 hrs by SRB assay; conditions: MOLT-4, 48 h, read-out: Activity
# HCC 2998 = assay: Growth inhibition of human HCC2998 cells assessed as cell growth at 10 uM after 48 hrs by SRB assay; conditions: HCC 2998, 48 h, read-out: Activity
# SW-620 = assay: Growth inhibition of human SW620 cells assessed as cell growth at 10 uM after 48 hrs by SRB assay; conditions: SW-620, 48 h, read-out: Activity
# KM12 = assay: Growth inhibition of human KM12 cells after 48 hrs by […] growth inhibition assay; conditions: KM12, 48 h
# SF-295 = assay: Growth inhibition of human SF295 cells after 48 hrs by […] growth inhibition assay; conditions: SF-295, 48 h
# SF-539 = assay: Growth inhibition of human SF539 cells after 48 hrs by […] growth inhibition assay; conditions: SF-539, 48 h
# OVCAR-4 = assay: Growth inhibition of human OVCAR4 cells after 48 hrs by […] growth inhibition assay; conditions: OVCAR-4, 48 h
# A498 [1] = assay: Growth inhibition of human A498 cells after 48 hrs by […] growth inhibition assay; conditions: A498, 48 h
# BT-549 = assay: Growth inhibition of human BT549 cells after 48 hrs by […] growth inhibition assay; conditions: BT-549, 48 h
# MCF7 = assay: Growth inhibition of human MCF7 cells after 48 hrs by […] growth inhibition assay; conditions: MCF7, 48 h
# [2] = Growth inhibition of human […] cells assessed as cell growth at 0.1 uM after 48 hrs by SRB assay; conditions: read-out: Activity
# HOP-62 = assay: Growth inhibition of human HOP62 cells assessed as cell growth at 0.1 uM after 48 hrs by SRB assay; conditions: HOP-62, 48 h, read-out: Activity
# NCI-H322M = assay: Growth inhibition of human NCI-H322M cells assessed as cell growth at 0.1 uM after 48 hrs by SRB assay; conditions: read-out: Activity
# SF-268 [3] = assay: Growth inhibition of human SF268 cells assessed as cell growth at 0.1 uM after 48 hrs by SRB assay; conditions: SF-268, 48 h, read-out: Activity
# U-251 [4] = assay: Growth inhibition of human U251 cells assessed as cell growth at 0.1 uM after 48 hrs by SRB assay; conditions: U-251, 48 h, read-out: Activity
# U-251 [5] = assay: Growth inhibition of human U251 cells assessed as cell growth at 10 uM after 48 hrs by SRB assay; conditions: U-251, 48 h, read-out: Activity
# SK-MEL-5 = assay: Growth inhibition of human SK-MEL-5 cells assessed as cell growth at 10 uM after 48 hrs by SRB assay; conditions: SK-MEL-5, 48 h, read-out: Activity
# UACC-257 = assay: Growth inhibition of human UACC257 cells assessed as cell growth at 10 uM after 48 hrs by SRB assay; conditions: UACC-257, 48 h, read-out: Activity
# CAKI-1 = assay: Growth inhibition of human Caki1 cells assessed as cell growth at 10 uM after 48 hrs by SRB assay; conditions: CAKI-1, 48 h, read-out: Activity
# NCI-H23 = assay: Growth inhibition of human NCI-H23 cells assessed as cell growth at 100 uM after 48 hrs by SRB assay; conditions: NCI-H23, 48 h, read-out: Activity
# SNB-75 = assay: Growth inhibition of human SNB75 cells assessed as cell growth at 100 uM after 48 hrs by SRB assay; conditions: SNB-75, 48 h, read-out: Activity
# OVCAR-3 = assay: Growth inhibition of human OVCAR3 cells assessed as cell growth at 100 uM after 48 hrs by SRB assay; conditions: OVCAR-3, 48 h, read-out: Activity
# A498 [6] = assay: Growth inhibition of human A498 cells assessed as cell growth at 100 uM after 48 hrs by SRB assay; conditions: A498, 48 h, read-out: Activity
# EKVX = assay: Growth inhibition of human EKVX cells assessed as cell growth at 1 mM after 48 hrs by SRB assay; conditions: read-out: Activity
# SF-268 [7] = assay: Growth inhibition of human SF268 cells assessed as cell growth at 1 mM after 48 hrs by SRB assay; conditions: SF-268, 48 h, read-out: Activity
# NCI-H522 = assay: Growth inhibition of human NCI-H522 cells assessed as cell growth at 1 uM after 48 hrs by SRB assay; conditions: NCI-H522, 48 h, read-out: Activity
# [8] = read-out: LC50 (the source's name)
# [9] = read-out: pLC50 (the source's name) (converted)
structure (smiles),measurement,setting,value
CNC(=O)NC[C@H]1O[C@@H](n2cnc3c(NC(=O)Nc4ccccc4)ncnc32)[C@H](O[Si](C)(C)C(C)(C)C)[C@@H]1CC(=O)N(C)OC,growth at 1 µM,SK-OV-3,97%
same,growth at 1 µM,RXF 393,100%
same,growth at 1 µM,TK-10,106%
same,growth at 1 µM,MDA-MB-231,104%
same,growth at 10 µM,K562,82%
same,growth at 10 µM,MOLT-4,78%
same,growth at 10 µM,HCC 2998,100%
same,growth at 10 µM,SW-620,93%
same,GI50,KM12; read-out: GI50,23.9 µM
same,CC50,KM12; [8],> 100 µM
same,TGI,KM12; read-out: TGI,> 100 µM
same,GI50,KM12; read-out: pGI50 (converted),24 µM
same,CC50,KM12; [9],> 100 µM
same,TGI,KM12; read-out: pTGI (converted),> 100 µM
same,GI50,SF-295; read-out: GI50,9.09 µM
same,LC50,SF-295; read-out: LC50,16.4 µM
same,TGI,SF-295; read-out: TGI,> 100 µM
same,GI50,SF-295; read-out: pGI50 (converted),9.12 µM
same,LC50,SF-295; read-out: pLC50 (converted),> 100 µM
same,TGI,SF-295; read-out: pTGI (converted),> 100 µM
same,GI50,SF-539; read-out: GI50,22.3 µM
same,CC50,SF-539; [8],> 100 µM
same,TGI,SF-539; read-out: TGI,> 100 µM
same,GI50,SF-539; read-out: pGI50 (converted),22.4 µM
same,CC50,SF-539; [9],> 100 µM
same,TGI,SF-539; read-out: pTGI (converted),> 100 µM
same,GI50,OVCAR-4; read-out: GI50,53 µM
same,CC50,OVCAR-4; [8],> 100 µM
same,TGI,OVCAR-4; read-out: TGI,> 100 µM
same,GI50,OVCAR-4; read-out: pGI50 (converted),52.5 µM
same,CC50,OVCAR-4; [9],> 100 µM
same,TGI,OVCAR-4; read-out: pTGI,> 100 µM
same,GI50,A498 [1]; read-out: GI50,3.87 µM
same,CC50,A498 [1]; [8],> 100 µM
same,TGI,A498 [1]; read-out: TGI,40.3 µM
same,GI50,A498 [1]; read-out: pGI50 (converted),3.89 µM
same,CC50,A498 [1]; [9],> 100 µM
same,TGI,A498 [1]; read-out: pTGI (converted),40.7 µM
same,GI50,BT-549; read-out: GI50,29 µM
same,CC50,BT-549; [8],> 100 µM
same,TGI,BT-549; read-out: TGI,> 100 µM
same,GI50,BT-549; read-out: pGI50 (converted),28.8 µM
same,CC50,BT-549; [9],> 100 µM
same,TGI,BT-549; read-out: pTGI (converted),> 100 µM
same,GI50,MCF7; read-out: GI50,5.59 µM
same,CC50,MCF7; [8],> 100 µM
same,TGI,MCF7; read-out: TGI,> 100 µM
same,GI50,MCF7; read-out: pGI50 (converted),5.62 µM
same,CC50,MCF7; [9],> 100 µM
same,TGI,MCF7; read-out: pTGI (converted),> 100 µM
same,growth at 0.1 µM,[2],80%
same,growth at 0.1 µM,HOP-62,92%
same,growth at 0.1 µM,NCI-H322M,97%
same,growth at 0.1 µM,SF-268 [3],98%
same,growth at 0.1 µM,U-251 [4],97%
same,growth at 10 µM,U-251 [5],90%
same,growth at 10 µM,SK-MEL-5,89%
same,growth at 10 µM,UACC-257,102%
same,growth at 10 µM,CAKI-1,76%
same,growth at 100 µM,NCI-H23,71%
same,growth at 100 µM,SNB-75,54%
same,growth at 100 µM,OVCAR-3,41%
same,growth at 100 µM,A498 [6],24%
same,growth at 1000 µM,EKVX,36%
same,growth at 1000 µM,SF-268 [7],20%
same,growth at 1 µM,NCI-H522,87%
